# Entries after “also recorded” stand apart in the source; their conditions may differ.
# Tests used:
# HL-60 cell lines = assay: FACS analysis of gp96 on cell surface of HL-60 cell lines; type: cell-based; details: 1 mM, 24 hours
# Method: FIG. 35 is a graph showing an FACS analysis result using gp96 antibody, on the amount of gp96 protein existing on a cell surface, when HL-60 cell lines were treated with a 2,4-pyrimidine derivatives at a concentration of 1 mM for 24 hours.
# Also, HL-60 cell lines were treated with a 2,4-pyrimidine derivative at a concentration of 1 mM for 24 hours, and the amount of gp96 protein existing on a cell surface was analyzed through flow cytometry (FACS) using gp96 antibody.
# [1] = system: cell surface gp96 of splenocytes isolated from C57BL/6 mice; assay: Flow cytometry of cell surface gp96 on splenocytes; type: cell-based; details: 10 μM, 24 h
# Method: FIGS. 1 to 9 represent suppression of cell surface gp96 by GPM1 reduces DC maturation and B220^+ population in gp96tm transgenic mice. (FIG. 1) Chemical structure of GPM1 (Formula 2) and negative control (NC1, Formula 16) used in this study. (FIG. 2) The dose-dependent effect of GPM1 or NC1 on the AIMP1-gp96 interaction using ELISA method as described. The indicated concentrations of the two compounds and biotin-conjugated murine gp96 were added to AIMP1 coated on the surface of microtiter wells, and gp96 bound to AIMP1 was detected with strepavidin-conjugated peroxidase. (FIG. 3) The binding of GPM1 to gp96 was examined by surface plasmon resonance (SPR). GPM1 at the indicated concentrations was injected to immobilized gp96 and the binding was measured using Biacore 3000. The response data were processed using data from a reference surface and buffer injections. Each concentration was tested in triplicate. (FIG. 4) RAW24.7 cells were treated with 10 μM GPM1 for 24 h. Cell lysates were immunoprecipitated with control IgG or anti-gp96 antibody and the immunoprecipitated proteins were immunoblotted with anti-KDELR1, antiAIMP1 and gp96 antibodies. WCL means whole cell lysate. […] TNFα secreted from BMDCs was quantified by ELISA. […]
# [2] = molecular target: interaction of gp96 and AIMP1 (Mus musculus, UniProt P08113); assay: ELISA assay of gp96-AIMP1 interaction; type: binding, murine
# Method: FIGS. 1 to 9 represent suppression of cell surface gp96 by GPM1 reduces DC maturation and B220^+ population in gp96tm transgenic mice. (FIG. 1) Chemical structure of GPM1 (Formula 2) and negative control (NC1, Formula 16) used in this study. (FIG. 2) The dose-dependent effect of GPM1 or NC1 on the AIMP1-gp96 interaction using ELISA method as described. The indicated concentrations of the two compounds and biotin-conjugated murine gp96 were added to AIMP1 coated on the surface of microtiter wells, and gp96 bound to AIMP1 was detected with strepavidin-conjugated peroxidase. (FIG. 3) The binding of GPM1 to gp96 was examined by surface plasmon resonance (SPR). GPM1 at the indicated concentrations was injected to immobilized gp96 and the binding was measured using Biacore 3000. The response data were processed using data from a reference surface and buffer injections. Each concentration was tested in triplicate. (FIG. 4) RAW24.7 cells were treated with 10 μM GPM1 for 24 h. Cell lysates were immunoprecipitated with control IgG or anti-gp96 antibody and the immunoprecipitated proteins were immunoblotted with anti-KDELR1, antiAIMP1 and gp96 antibodies. WCL means whole cell lysate. (FIG. 5) Splenocytes isolated from C57BL/6 mice were treated with vehicle (5% DMSO in PBS), GPM1, or NC1 (10 μM, 24 h), stained for cell surface gp96, and followed by flow cytometry. (FIG. 6) AIMP1^+/+ or AIMP1^−/− mouse splenocytes (2×10^5 cells) were treated with vehicle, GPM1, or NC1 (10 μM, 24 h), fixed, and then co-cultured with WT bone marrow-derived DCs (1×10^4 cells) for 16 h. TNFα secreted from BMDCs was quantified by ELISA. (FIG. 7) Percentage of gp96^+ MHC class II^+ cell population in splenocytes from gp96tm transgenic female mice treated with vehicle (control) (n=9), GPM1 (n=9), and dexamethasone (n=7) at 30 mg/kg. (FIG. 8) Cell surface ICOSL of CD11b^+CD11c^+ (myeloid DCs), CD11b^−CD11c^+ (lymphoid DCs), and CD11b^+CD11c^− (macrophages) cell populations in splenocytes from gp96tm transgenic female mice treated with vehicle (n=9) and GPM1 (n=9) at 30 mg/kg. (FIG. 9) Percentage of B220^+, MHC class II^+, CD4^+, CD8^+, CD4 and CD8 double negative cell populations in splenocytes from gp96tm transgenic female mice treated with vehicle (n=9), GPM1 (n=9), and dexamethasone (n=7) at 30 mg/kg. Student t-test P values comparing GPM1-treated mice with control are indicated.
# 96-well plates (Maxisorp., F96; Nunc) were coated with 500 ng/well AIMP1 in PBS (pH 7.4). After washing, the remaining sites were blocked with PBS containing 1% BSA for 1 h. Binding of 10 ng/well biotin-conjugated gp96 was performed in Tris buffer (25 mM Tris, 10 mM NaCl and 0.4% Triton X-100). Each of the 6,580 compounds was added to the well at 100 nM and the plates were washed and incubated with HRP conjugated streptavidin in PBS containing 0.1% BSA and 0.1% Tween 20 for 30 min. The plates were washed, and then substrate was added to each well. The absorbance was monitored at 450 nm.
# To identify chemicals that can affect membrane translocation of gp96, the present inventors employed the interaction of gp96 with AIMP1 as the screening target. For this screening, the present inventors chose 6,482 chemicals with different pharmacophore representing 150,000 different chemicals deposited in Korea Chemical Bank and identified the compounds that can inhibit the interaction of the two proteins. For the screening, the present inventors set up a modified ELISA method using recombinant AIMP1 and gp96 proteins as described in Experimental methods. Each of the tested compounds gave different effect on the interaction of the two proteins (FIG. 19). And the present inventors have selected 12 compounds that inhibited the interaction more than 95% of the control at 0.1 μM (Table 1). The present inventors obtained 1251 additional compounds derived from these 12 initial hits and tested them again for their activities against the gp96-AIMP1 interaction.
# Chain of interaction of gp96 and AIMP1 (P08113 22-802): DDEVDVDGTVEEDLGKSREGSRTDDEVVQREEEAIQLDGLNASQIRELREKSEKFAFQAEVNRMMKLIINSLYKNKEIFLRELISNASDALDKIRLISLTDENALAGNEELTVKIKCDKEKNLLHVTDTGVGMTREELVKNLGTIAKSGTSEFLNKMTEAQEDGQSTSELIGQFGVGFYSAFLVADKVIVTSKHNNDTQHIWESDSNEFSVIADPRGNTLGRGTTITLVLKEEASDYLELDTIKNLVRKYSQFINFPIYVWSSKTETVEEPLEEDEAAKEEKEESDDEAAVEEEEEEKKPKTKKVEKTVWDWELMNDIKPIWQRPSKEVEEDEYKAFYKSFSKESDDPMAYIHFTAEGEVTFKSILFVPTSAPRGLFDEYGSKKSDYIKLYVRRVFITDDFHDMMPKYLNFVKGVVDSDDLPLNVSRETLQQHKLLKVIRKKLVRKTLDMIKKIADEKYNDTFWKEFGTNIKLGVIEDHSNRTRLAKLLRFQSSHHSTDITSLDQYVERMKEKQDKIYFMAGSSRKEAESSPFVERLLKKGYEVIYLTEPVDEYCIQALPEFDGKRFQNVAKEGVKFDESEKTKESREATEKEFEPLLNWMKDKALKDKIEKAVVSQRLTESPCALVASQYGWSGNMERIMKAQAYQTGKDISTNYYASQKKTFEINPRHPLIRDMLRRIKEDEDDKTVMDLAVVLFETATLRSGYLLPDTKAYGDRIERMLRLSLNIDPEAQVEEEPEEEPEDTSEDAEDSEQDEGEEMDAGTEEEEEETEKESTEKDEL
SMILES,amount of gp96 protein existing on a cell surface (HL-60 cell lines),further results
"COC(=O)C(C)(C)Oc1nc(OC)cc(OC)n1 [KR-S-013, 2-(4,6-Dimethoxy-pyrimidin-2-yloxy)-2-methyl-propionic acid methyl ester]",better effects than KR-S-015,
"COC(=O)CC(C)Oc1nc(OC)cc(OC)n1 [KR-S-014, D-3-(4,6-Dimethoxy-pyrimidin-2-yloxy)-butyric acid methyl ester]",better effects than KR-S-015,
"COc1cc(OC)nc(OC(C(=O)O)c2ccccc2)n1 (stereo not shown) [KR-S-017, (4,6-Dimethoxy-pyrimidin-2-yloxy)-phenyl-acetic acid]",better effects than KR-S-015,
"CCCCNC(=O)C(Oc1nc(OC)cc(OC)n1)c1ccccc1 (stereo not shown) [KR-S-020, N-Butyl-2-(4,6-dimethoxy-pyrimidin-2-yloxy)-2-phenyl-acetamide]",better effects than KR-S-015,
"COc1cc(OC)nc(O[C@H](C(=O)O)C(C)C)n1 [KR-S-022, L-2-(4,6-Dimethoxy-pyrimidin-2-yloxy)-3-methyl-butyric acid]",better effects than KR-S-015,
"COc1cc(OC)nc(O[C@H](C)C(=O)O)n1 [KR-S-023, D-2-(4,6-Dimethoxy-pyrimidin-2-yloxy)-propionic acid]","better effects than KR-S-015; also recorded: better than isopropyl (KR-S-009, KR-S-010)",
"COc1cc(OC)nc(O[C@@H](C)C(=O)O)n1 [KR-S-024, L-2-(4,6-Dimethoxy-pyrimidin-2-yloxy)-propionic acid]","better effects than KR-S-015; also recorded: better than isopropyl (KR-S-009, KR-S-010)",
"COc1cc(OC)nc(OC(Cc2ccccc2)C(=O)O)n1 (stereo not shown) [NC1, 2-(4,6-dimethoxypyrimidin-2-yloxy)-3-phenylpropanoic acid, reference compound]",,surface gp96 of mouse splenocytes [1]: not; inhibition on the interaction of gp96 and AIMP1 [2]: 4%; dose-dependent effect on the interaction of gp96 and AIMP1 ([2]; ELISA): no effect

# — patent publication US9573907B2, “2, 4-pyrimidine derivatives and use thereof” (SNU R&DB FOUNDATION, priority 2009, dated 2017)
